pKi: −log10 of the molar value. Values joined by “and” are separate entries in the source; they are usually repeats but may differ in a detail not shown here. Equal entries are not always repeated.
Legend:
Histamine H4 receptor = Histamine H4 receptor (Homo sapiens, UniProt Q9H3N8)
Histamine H1 receptor = Histamine H1 receptor (Homo sapiens, UniProt P35367)
Histamine H2 receptor = Histamine H2 receptor (Homo sapiens, UniProt P25021)
[1] = target: T1, Alpha-2C adrenergic receptor (Homo sapiens, UniProt P18825)
T1 sequence (P18825 whole entry): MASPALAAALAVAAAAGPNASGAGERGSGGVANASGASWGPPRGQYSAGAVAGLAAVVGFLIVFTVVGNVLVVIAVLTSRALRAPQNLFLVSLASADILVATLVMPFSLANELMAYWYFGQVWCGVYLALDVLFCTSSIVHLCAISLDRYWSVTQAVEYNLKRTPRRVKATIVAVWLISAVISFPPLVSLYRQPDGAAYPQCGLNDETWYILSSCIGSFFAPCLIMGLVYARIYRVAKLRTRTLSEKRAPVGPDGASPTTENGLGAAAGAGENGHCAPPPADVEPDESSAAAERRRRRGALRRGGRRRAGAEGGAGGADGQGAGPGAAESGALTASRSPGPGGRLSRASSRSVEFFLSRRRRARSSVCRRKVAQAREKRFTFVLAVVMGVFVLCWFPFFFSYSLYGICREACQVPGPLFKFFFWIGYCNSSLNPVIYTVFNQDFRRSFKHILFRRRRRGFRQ

[2] = target: T2, 5-hydroxytryptamine receptor 3A (Rattus norvegicus, UniProt P35563)
T2 sequence (P35563 whole entry): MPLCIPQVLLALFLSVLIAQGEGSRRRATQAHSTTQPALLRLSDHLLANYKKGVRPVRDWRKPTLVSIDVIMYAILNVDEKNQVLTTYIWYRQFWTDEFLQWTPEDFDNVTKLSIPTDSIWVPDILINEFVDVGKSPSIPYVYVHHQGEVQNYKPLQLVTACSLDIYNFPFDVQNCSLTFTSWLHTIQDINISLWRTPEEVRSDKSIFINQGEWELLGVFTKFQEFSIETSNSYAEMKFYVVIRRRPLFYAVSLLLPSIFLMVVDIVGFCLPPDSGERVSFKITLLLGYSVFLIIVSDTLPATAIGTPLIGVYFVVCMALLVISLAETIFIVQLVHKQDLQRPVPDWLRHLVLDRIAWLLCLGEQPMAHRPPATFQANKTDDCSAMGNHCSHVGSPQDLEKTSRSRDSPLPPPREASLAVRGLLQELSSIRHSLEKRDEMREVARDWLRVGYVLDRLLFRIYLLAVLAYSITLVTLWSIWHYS

Histamine receptor H3 = Histamine receptor H3 (Canis lupus familiaris, UniProt Q865E3)
Sequence of Histamine receptor H3 (Q865E3 whole entry): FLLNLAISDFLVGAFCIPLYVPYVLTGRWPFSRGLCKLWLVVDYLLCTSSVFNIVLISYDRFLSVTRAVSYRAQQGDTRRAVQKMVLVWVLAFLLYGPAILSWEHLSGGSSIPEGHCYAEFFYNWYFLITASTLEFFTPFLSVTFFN

Histamine H3 receptor [3] = target: Histamine H3 receptor (Cavia porcellus, UniProt Q9JI35)
Sequence of Histamine H3 receptor (Cavia porcellus, UniProt Q9JI35) (Q9JI35 whole entry): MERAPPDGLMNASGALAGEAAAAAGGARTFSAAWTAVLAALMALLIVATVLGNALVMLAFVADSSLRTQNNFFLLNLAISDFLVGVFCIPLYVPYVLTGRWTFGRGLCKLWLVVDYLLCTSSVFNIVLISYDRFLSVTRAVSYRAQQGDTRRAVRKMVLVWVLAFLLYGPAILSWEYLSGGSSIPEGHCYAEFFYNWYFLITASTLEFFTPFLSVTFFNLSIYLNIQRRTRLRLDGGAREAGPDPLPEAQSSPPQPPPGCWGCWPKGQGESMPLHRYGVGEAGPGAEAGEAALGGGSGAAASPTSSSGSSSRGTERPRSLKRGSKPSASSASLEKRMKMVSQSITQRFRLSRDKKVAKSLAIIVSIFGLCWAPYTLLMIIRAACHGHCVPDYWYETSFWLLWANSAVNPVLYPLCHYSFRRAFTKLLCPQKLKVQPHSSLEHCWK

Hrh3 protein = Hrh3 protein (Rattus norvegicus, UniProt Q5PPG3)
Sequence of Hrh3 protein (Q5PPG3 whole entry): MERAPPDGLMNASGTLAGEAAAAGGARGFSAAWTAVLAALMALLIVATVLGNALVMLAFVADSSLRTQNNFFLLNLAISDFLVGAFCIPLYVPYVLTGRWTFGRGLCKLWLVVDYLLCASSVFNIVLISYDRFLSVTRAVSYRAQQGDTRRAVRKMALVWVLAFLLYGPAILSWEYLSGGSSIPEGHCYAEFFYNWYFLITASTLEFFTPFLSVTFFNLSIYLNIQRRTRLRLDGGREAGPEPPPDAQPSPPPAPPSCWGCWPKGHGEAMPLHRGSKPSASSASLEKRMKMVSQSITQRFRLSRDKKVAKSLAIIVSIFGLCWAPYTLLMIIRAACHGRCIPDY

[4] = target: T3, Alpha-2A adrenergic receptor (Homo sapiens, UniProt P08913)
T3 sequence (P08913 whole entry): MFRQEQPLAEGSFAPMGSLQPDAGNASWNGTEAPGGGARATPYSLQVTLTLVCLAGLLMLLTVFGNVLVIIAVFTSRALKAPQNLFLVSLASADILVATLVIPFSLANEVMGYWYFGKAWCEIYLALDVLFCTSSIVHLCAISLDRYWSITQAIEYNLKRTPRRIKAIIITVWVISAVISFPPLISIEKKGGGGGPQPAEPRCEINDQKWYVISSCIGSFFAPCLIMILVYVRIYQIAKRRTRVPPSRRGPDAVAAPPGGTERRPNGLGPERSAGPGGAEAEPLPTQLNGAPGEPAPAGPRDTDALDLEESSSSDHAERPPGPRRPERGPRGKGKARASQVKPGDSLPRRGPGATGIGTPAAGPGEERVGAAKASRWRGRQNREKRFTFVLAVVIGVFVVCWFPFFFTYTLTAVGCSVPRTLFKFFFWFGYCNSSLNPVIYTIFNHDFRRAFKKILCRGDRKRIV

Histamine H3 receptor [5] = target: Histamine H3 receptor (Homo sapiens, UniProt Q9Y5N1)
Sequence of Histamine H3 receptor (Homo sapiens, UniProt Q9Y5N1) (Q9Y5N1 whole entry): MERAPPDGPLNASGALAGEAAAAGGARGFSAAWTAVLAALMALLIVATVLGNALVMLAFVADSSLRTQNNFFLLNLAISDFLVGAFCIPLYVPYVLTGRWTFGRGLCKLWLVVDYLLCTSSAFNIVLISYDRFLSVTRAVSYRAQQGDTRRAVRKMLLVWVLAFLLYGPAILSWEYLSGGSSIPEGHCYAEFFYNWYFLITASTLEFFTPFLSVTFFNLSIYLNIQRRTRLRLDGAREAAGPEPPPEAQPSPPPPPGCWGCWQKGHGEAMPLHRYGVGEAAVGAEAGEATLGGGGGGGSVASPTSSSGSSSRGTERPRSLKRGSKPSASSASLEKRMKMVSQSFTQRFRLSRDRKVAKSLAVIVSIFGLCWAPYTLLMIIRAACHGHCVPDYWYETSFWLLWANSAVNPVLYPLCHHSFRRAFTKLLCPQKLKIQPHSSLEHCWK

Sequence of Histamine H4 receptor (Q9H3N8 whole entry): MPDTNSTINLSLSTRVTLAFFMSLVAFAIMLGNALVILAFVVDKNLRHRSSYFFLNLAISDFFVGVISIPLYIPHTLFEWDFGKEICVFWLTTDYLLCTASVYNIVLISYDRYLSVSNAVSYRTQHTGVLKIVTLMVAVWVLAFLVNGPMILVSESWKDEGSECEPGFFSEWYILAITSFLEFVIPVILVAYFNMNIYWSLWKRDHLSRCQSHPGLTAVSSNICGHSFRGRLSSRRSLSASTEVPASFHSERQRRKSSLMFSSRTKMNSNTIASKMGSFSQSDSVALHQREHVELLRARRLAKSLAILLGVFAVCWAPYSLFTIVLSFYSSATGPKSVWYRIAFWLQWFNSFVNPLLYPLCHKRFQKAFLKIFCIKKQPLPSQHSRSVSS
Sequence of Histamine H2 receptor (P25021 whole entry): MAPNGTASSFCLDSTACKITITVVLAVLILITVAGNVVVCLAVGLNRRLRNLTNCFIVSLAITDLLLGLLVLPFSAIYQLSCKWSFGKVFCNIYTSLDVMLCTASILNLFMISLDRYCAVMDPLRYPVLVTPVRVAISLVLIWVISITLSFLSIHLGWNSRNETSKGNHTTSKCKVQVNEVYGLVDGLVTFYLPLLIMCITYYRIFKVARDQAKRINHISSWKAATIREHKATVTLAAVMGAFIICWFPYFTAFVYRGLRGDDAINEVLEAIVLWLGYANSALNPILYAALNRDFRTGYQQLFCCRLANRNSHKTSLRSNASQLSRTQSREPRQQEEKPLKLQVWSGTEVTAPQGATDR
Sequence of Histamine H1 receptor (P35367 whole entry): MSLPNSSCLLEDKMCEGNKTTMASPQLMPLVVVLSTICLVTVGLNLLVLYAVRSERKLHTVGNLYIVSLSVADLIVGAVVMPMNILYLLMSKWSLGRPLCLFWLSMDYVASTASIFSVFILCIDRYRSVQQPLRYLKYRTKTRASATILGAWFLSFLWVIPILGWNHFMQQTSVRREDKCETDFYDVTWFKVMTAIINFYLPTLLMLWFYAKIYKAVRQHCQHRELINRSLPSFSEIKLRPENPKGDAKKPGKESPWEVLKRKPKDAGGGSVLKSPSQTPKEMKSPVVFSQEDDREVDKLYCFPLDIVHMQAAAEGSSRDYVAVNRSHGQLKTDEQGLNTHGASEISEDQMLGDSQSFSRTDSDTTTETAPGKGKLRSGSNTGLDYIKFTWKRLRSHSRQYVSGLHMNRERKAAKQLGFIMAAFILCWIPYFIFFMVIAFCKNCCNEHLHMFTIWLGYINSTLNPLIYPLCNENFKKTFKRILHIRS

Structure (SMILES)	pKi (Histamine H4 receptor)	pKi (Histamine H1 receptor)	pKi (Histamine H2 receptor)	pKi [1]	pKi [2]	pKi (Histamine receptor H3)	pKi (Histamine H3 receptor [3])	pKi (Hrh3 protein)	pKi [4]	pKi (Histamine H3 receptor [5])
C[C@@H](NC(=O)c1ccco1)C(=O)N1CCN(CCCOc2ccc(C(=O)C3CC3)cc2)CC1	< 5.00	5.40	< 5.00	5.62	< 5.00	8.37	8.62	9.15 and 9.14	< 5.00	–
O=C(c1ccc(OCCCc2cnc[nH]2)cc1)C1CC1	5.73	< 5.00	< 5.00	–	6.52	8.24	8.76	9.29 and 9.20	7.37	–
CCn1c(=O)[nH]c(=O)c2conc21 [A-304121]	< 5.00	< 5.00	< 5.00	5.54	–	7.33	7.76	8.60 and 8.90	< 5.00	6.12 and 6.09
NC(=NCc1ccc(Cl)cc1)SCCCc1cnc[nH]1 [VUF 9153]	7.38	5.20	5.60	7.80	8.13	10.10	9.66	–	7.76	–
S=C(NC1CCCCC1)N1CCC(c2cnc[nH]2)CC1	–	< 5.00	< 5.00	6.46	5.64	8.17	8.34	8.44 and 8.15	6.90	–
